Here are results for two compounds from ChEMBL document CHEMBL1250444, “Nitric oxide activates TRP channels by cysteine S-nitrosylation” (Nat Chem Biol, 2006).

Positions count from the first letter of the chain named. Calls of active or inactive are those of the source. No cut-off for these calls is given here.

Assay [1] deals with T1, Short transient receptor potential channel 5 (Homo sapiens) (UniProt Q9UL62).
T1 sequence (whole entry): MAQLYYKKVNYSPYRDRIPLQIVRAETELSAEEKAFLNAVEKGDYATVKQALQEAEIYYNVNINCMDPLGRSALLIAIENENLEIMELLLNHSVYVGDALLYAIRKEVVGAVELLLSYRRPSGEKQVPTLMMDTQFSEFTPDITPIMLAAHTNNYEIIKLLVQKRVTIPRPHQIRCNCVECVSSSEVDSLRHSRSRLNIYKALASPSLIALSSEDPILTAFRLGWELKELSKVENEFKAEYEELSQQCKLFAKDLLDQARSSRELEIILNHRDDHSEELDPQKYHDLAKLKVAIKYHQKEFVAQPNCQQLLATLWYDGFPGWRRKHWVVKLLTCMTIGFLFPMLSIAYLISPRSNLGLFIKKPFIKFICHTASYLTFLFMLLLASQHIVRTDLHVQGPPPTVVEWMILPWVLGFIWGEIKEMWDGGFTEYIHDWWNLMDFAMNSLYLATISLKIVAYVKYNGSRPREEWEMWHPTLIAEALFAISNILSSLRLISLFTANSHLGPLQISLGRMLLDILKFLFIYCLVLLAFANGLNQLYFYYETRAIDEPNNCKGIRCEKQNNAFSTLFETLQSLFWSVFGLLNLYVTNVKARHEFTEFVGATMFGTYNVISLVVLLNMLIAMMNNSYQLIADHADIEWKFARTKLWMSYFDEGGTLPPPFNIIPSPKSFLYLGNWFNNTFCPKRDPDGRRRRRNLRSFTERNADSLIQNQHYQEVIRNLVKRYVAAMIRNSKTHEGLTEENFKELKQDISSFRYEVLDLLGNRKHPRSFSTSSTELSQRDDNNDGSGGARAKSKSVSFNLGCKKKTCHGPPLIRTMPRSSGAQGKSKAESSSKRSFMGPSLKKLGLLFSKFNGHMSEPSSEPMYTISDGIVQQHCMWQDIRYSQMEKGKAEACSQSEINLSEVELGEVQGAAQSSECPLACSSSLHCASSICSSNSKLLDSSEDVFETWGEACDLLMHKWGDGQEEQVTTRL
Description: Activation of TRPC5 expressed in BAEC expressing dominant negative mutant of TRPC5 assessed as increase in Ca2+ level from extracellular space at 100 uM.

The target in assay [2] is T1, Short transient receptor potential channel 5 (Homo sapiens). Description: Induction of S-nitrosylation of TRPC5 in HEK cells assessed as increase in Ca2+ level from extracellular space at 30 uM in presence of ascorbic acid. The note with it: HEK293. The class given is cell-based.
Assay [3] deals with HEK293. Description: Activation of rat TRPV1 Cys616 mutant expressed in HEK cells assessed as increase in Ca2+ level from extracellular space at 10 uM. The class given is cell-based.
Assay [4] has as its target T1, Short transient receptor potential channel 5 (Homo sapiens). Description: Induction of S-nitrosylation of TRPC5 in HEK cells assessed as increase in Ca2+ level from extracellular space at 1 mM in presence of dithiothreitol. Type of assay: cell-based. The note with it: HEK293.
For assay [5] the target is unchanged. Description: Induction of S-nitrosylation of TRPC5 in HEK cells assessed as increase in Ca2+ level from extracellular space at 10 uM. The class given is cell-based. Conditions: HEK293.
Assay [6] has as its system HEK293. Description: Activation of rat TRPV1 Cys621 mutant expressed in HEK cells assessed as increase in Ca2+ level from extracellular space at 0.1 to 1 mM. Type of assay: cell-based.
Assay [7] concerns the target T1, Short transient receptor potential channel 5 (Homo sapiens). Description: Induction of S-nitrosylation of TRPC5 in HEK cells assessed as inhibition of incorporation of DTNB-2Bio at 5 mM. Type of assay: cell-based. Conditions: HEK293.
Assay [8] has the same target. As to the kind of experiment: Induction of S-nitrosylation of TRPC5 in HEK cells assessed as increase in Ca2+ level from extracellular space at 300 uM. The class given is cell-based. The note with it: HEK293.
Assay [9] deals with HEK293. As to the kind of experiment: Activation of rat TRPV1 Cys616 mutant expressed in HEK cells assessed as increase in Ca2+ level from extracellular space at 0.1 to 1 mM. Type of assay: cell-based.
For assay [10], the target named is T1, Short transient receptor potential channel 5 (Homo sapiens). Description: Induction of S-nitrosylation of TRPC5 in HEK cells assessed as increase in Ca2+ level from extracellular space at 1 mM in presence of ascorbic acid. Type of assay: cell-based. Conditions: HEK293.
The subject of assay [11] is T2, Short transient receptor potential channel 5 (Homo sapiens), Q9UL62 [C553S].
T2 sequence (whole entry): T1 sequence (whole entry) with C553S
As to the kind of experiment: Decrease in TRPC5 C553S mutant S-nitrosylation in HEK cells assessed as inhibition of incorporation of DTNB-2Bio at 300 uM relative to control. The class given is cell-based. Conditions: HEK293.

For assay [12], the target named is T1, Short transient receptor potential channel 5 (Homo sapiens). As to the kind of experiment: Activation of TRPC5 expressed in BAEC expressing TRPC5 siRNA assessed as increase in Ca2+ level from extracellular space at 300 uM.

On to `O=[N+]([O-])c1ccc(SSc2ccc([N+](=O)[O-])cn2)nc1`, for which the result in assay [1] and in assay [3] was inactive. The result in assay [2] was Active.

Turning to `CC(=O)N[C@@H](C(=O)O)C(C)(C)SN=O` (racemic), the outcome in assay [4], in assay [6], in assay [9], in assay [10] and in assay [12] was inactive. The outcome in [5], in assay [7], in [8] and in [11] was Active.
